Laboratory results taken from ChEMBL document CHEMBL4385594, “4(3H)-Quinazolinone derivatives: Promising antibacterial drug leads” (Eur J Med Chem, 2019).
≈ marks a conversion by molar mass, not a printed value.

Assays:
[1] = tested on: Staphylococcus aureus; experiment: Antibacterial activity against Staphylococcus aureus assessed as reduction in bacterial cell growth at 0.03 to 64 ug/ml incubated for 16 to 18 hrs by CLSI broth dilution method; type: functional
[2] = Cytotoxicity against human HepG2 cells assessed as reduction in cell viability at 0 to 50 uM incubated for 48 hrs by MTT assay; type: cell-based; details: read-out: LD50
[3] = tested on: Acinetobacter baumannii; experiment: Antibacterial activity against Acinetobacter baumannii 1646 infected in mouse model of peritonitis assessed as increase in survival rate at 2 mg/kg, ip dosed at 1 hr post infection (reference value: 66%); type: functional; details: Acinetobacter baumannii, 1646, ip
[4] = tested on: Acinetobacter baumannii; experiment: Antibacterial activity against multidrug-resistant Acinetobacter baumannii assessed as reduction in bacterial cell growth incubated for 24 hrs by broth dilution method; type: functional
[5] = tested on: Staphylococcus aureus; experiment: Antibacterial activity against Staphylococcus aureus assessed as diameter of zone inhibition at 100 ppm by disc diffusion method; type: functional; details: read-out: DIZ
[6] = tested on: Escherichia coli; experiment: Antibacterial activity against Escherichia coli assessed as diameter of zone inhibition at 100 ppm by disc diffusion method; type: functional; details: read-out: DIZ
[7] = tested on: MCF7; experiment: Cytotoxicity against human MCF7 cells assessed as reduction in cell viability at 0.1 to 100 uM by MTT assay; type: functional, cell-based
[8] = tested on: Staphylococcus aureus; experiment: Antibacterial activity against methicillin-resistant Staphylococcus aureus assessed as reduction in bacterial cell growth at 0.5 to 512 ug/ml incubated for 24 hrs by CLSI broth microdilution method; type: functional
[9] = tested on: Helicobacter pylori; experiment: Antibacterial activity against Helicobacter pylori assessed as reduction in bacterial cell growth by agar dilution method; type: functional
[10] = tested on: Staphylococcus aureus; experiment: Antibacterial activity against Staphylococcus aureus assessed as inhibition zone; type: functional
[11] = tested on: Staphylococcus aureus; experiment: Antibacterial activity against Staphylococcus aureus; type: functional
[12] = tested on: Bacillus subtilis; experiment: Antibacterial activity against Bacillus subtilis MTCC 441 assessed as reduction in bacterial cell growth at 0.03 to 64 ug/ml incubated for 16 to 18 hrs by CLSI broth microdilution method; type: functional
[13] = tested on: Staphylococcus aureus; experiment: Antibacterial activity against Staphylococcus aureus NCIM 2901 assessed as reduction in bacterial cell growth at 0.03 to 64 ug/ml incubated for 16 to 18 hrs by CLSI broth microdilution method; type: functional
[14] = tested on: Pseudomonas aeruginosa; experiment: Antibacterial activity against Pseudomonas aeruginosa NCIM 2036 assessed as reduction in bacterial cell growth at 0.03 to 64 ug/ml incubated for 16 to 18 hrs by CLSI broth microdilution method; type: functional

CN(C)/C=C/c1nc2ccccc2c(=O)n1-c1cccc(C(=O)NC2CC2)c1
MIC [1]: > 64 µg/mL

CNc1nc(NCc2ccccc2)nc2cc(C)ccc12
CC50 at 48 h [2]: 23 µM
survival at 2 mg/kg [3]: 90%
MIC [4]: 0.5 µM (≈ 0.139 µg/mL)

N#Cc1ccc(/C=C/c2nc3ccccc3c(=O)n2-c2ccc(O)cc2)cc1
MIC [1]: 8 µg/mL (≈ 21.9 µM)

N#Cc1ccc(/C=C/c2nc3cccc(Cl)c3c(=O)n2-c2cccc(C(=O)O)c2)cc1
MIC [1]: 8 µg/mL (≈ 18.7 µM)

N#Cc1ccc(/C=C/c2nc3ccccc3c(=O)n2-c2cccc(C(=O)NC3CC3)c2)cc1
MIC [1]: 0.5 µg/mL (≈ 1.16 µM)

Cc1nc2ccc(I)cc2c(=O)n1/N=C/c1cc(Br)cc(Br)c1O
zone of inhibition at 100 ppm [5]: 14 mm
zone of inhibition at 100 ppm [6]: 16 mm

N#Cc1ccc(/C=C/c2nc3ccccc3c(=O)n2-c2cccc(C(=O)N3CCCC3)c2)cc1
MIC [1]: 4 µg/mL (≈ 8.96 µM)

Cc1nc2ccc(I)cc2c(=O)n1/N=C/c1cc(I)cc(I)c1O
zone of inhibition at 100 ppm [5]: 14 mm
zone of inhibition at 100 ppm [6]: 16 mm

CNc1nc(NCc2ccccc2)nc2cc(Cl)ccc12
CC50 at 48 h [2]: 23 µM
survival at 2 mg/kg [3]: 90%
MIC [4]: 0.5 µM (≈ 0.149 µg/mL)

CNc1nc(NCc2ccccc2)nc2ccc(Br)cc12
CC50 at 48 h [2]: 23 µM
survival at 2 mg/kg [3]: 90%
MIC [4]: 0.5 µM (≈ 0.172 µg/mL)

CNc1nc(NCc2ccccc2)nc2cc(Br)ccc12
CC50 at 48 h [2]: 23 µM
survival at 2 mg/kg [3]: 90%
MIC [4]: 0.5 µM (≈ 0.172 µg/mL)

Cn1cc[n+](C(Cn2cnc3ccccc3c2=O)c2cc3cc(Br)ccc3o2)c1 (stereo unspecified)
IC50 [7]: 0.57 to 1 µM

N#Cc1ccc(/C=C/c2nc3ccccc3c(=O)n2-c2cccc(C(=O)N3CCOCC3)c2)cc1
MIC [1]: 8 µg/mL (≈ 17.3 µM)

Cc1nc2ccc(I)cc2c(=O)n1/N=C/c1cc(Cl)cc(Cl)c1O
zone of inhibition at 100 ppm [5]: 14 mm
zone of inhibition at 100 ppm [6]: 16 mm

C#CCOc1cccc(-n2c(/C=C/c3ccc(C#N)cc3)nc3ccccc3c2=O)c1
MIC [1]: 0.25 µg/mL (≈ 0.62 µM)

N#Cc1ccc(/C=C/c2nc3ccccc3c(=O)n2-c2cccc(C(=O)N3CCCCC3)c2)cc1
MIC [1]: 4 µg/mL (≈ 8.69 µM)

Cc1nc2ccccc2c(=O)n1-c1cccc(C(=O)NC2CC2)c1
MIC [1]: > 64 µg/mL

Cc1cccc2c(=O)n(-c3cccc(C(=O)O)c3)c(/C=C/c3ccc(C#N)cc3)nc12
MIC [1]: 2 µg/mL (≈ 4.91 µM)

C#Cc1cccc(-n2c(/C=C/c3ccc(C#N)cc3)nc3ccccc3c2=O)c1
MIC [1]: 0.5 µg/mL (≈ 1.34 µM)

CNc1nc(NCc2ccccc2)nc2ccc(C)cc12
CC50 at 48 h [2]: 23 µM
survival at 2 mg/kg [3]: 90%
MIC [4]: 0.5 µM (≈ 0.139 µg/mL)

O=c1c2ccc(F)cc2ncn1CC(O)Cn1cncn1 (stereo unspecified)
MIC [8]: 8 µg/mL (≈ 27.7 µM)

CNc1nc(NCc2ccccc2)nc2ccc(Cl)cc12
CC50 at 48 h [2]: 23 µM
survival at 2 mg/kg [3]: 90%
MIC [4]: 0.5 µM (≈ 0.149 µg/mL)

COc1cc(/C=N/n2c(C)nc3ccc(I)cc3c2=O)cc(I)c1O
zone of inhibition at 100 ppm [5]: 14 mm
zone of inhibition at 100 ppm [6]: 16 mm

C#CCOc1cccc(-n2c(/C=C/c3ccc(Cl)cc3)nc3ccccc3c2=O)c1
MIC [1]: 32 µg/mL (≈ 77.5 µM)

COc1cc(/C=N/n2c(C)nc3ccc(Br)cc3c2=O)cc(Br)c1O
zone of inhibition at 100 ppm [5]: 14 mm
zone of inhibition at 100 ppm [6]: 16 mm

Nc1nc(-n2c(-c3ccc([N+](=O)[O-])cc3)nc3ccccc3c2=O)nnc1-c1cccc(Cl)c1Cl
MIC [9]: 25 µg/mL (≈ 49.4 µM)

Cn1cc[n+](C(Cn2cnc3ccccc3c2=O)c2cc3ccccc3o2)c1 (stereo unspecified)
IC50 [7]: 0.57 to 1 µM

Cc1ccc2c(c1)c(=O)n(-c1ccccc1)c1n[nH]c(=S)n21
inhibition zone (IZ) [10]: 17 mm
MIC [11]: 32 µg/mL (≈ 104 µM)

Cc1ccccc1NC(=O)Nn1c(-c2ccccc2)nc2ccccc2c1=O
MIC [12]: 1.56 µg/mL (≈ 4.21 µM)
MIC [13]: 1.56 µg/mL (≈ 4.21 µM)
MIC [14]: 1.56 µg/mL (≈ 4.21 µM)

CN(C)[C@@H]1C(O)=C(C(N)=O)C(=O)[C@@]2(O)C(O)=C3C(=O)c4c(O)cccc4[C@@](C)(O)[C@H]3C[C@@H]12 [TETRACYCLINE]
zone of inhibition at 100 ppm [5]: 12 to 24 mm
zone of inhibition at 100 ppm [6]: 6 to 27 mm
